According to patent publication US7642221B2, “Substituted thien-3-yl-sulphonylamino(thio)carbonyl-triazoline(ethi)ones” (Bayer Aktiengesellschaft, priority 1999, dated 2010):

Tests used:
Assay type in all cases: in vivo
Bromus = experiment: Pre-emergence test/greenhouse; settings: greenhouse, 60 g of ai/ha, rated after three weeks
Description: (§1) • Solvent: 5 parts by weight of acetone • Emulsifier: 1 part by weight of alkylaryl polyglycol ether
(§2) To produce a suitable preparation of active compound, 1 part by weight of active compound is mixed with the stated amount of solvent, the stated amount of emulsifier is added and the concentrate is diluted with water to the desired concentration.
(§3) Seeds of the test plants are sown in normal soil. After about 24 hours, the soil is sprayed with the preparation of active compound such that the particular amount of active compound desired is applied per unit area. The concentration of the spray liquor is chosen so that the particular amount of active compound desired is applied in 1000 liters of water per hectare.
(§4) After three weeks, the degree of damage to the plants is rated in % damage in comparison to the development of the untreated control.
(§5) The figure denote: • 0%=no effect (like untreated control) • 100%=total destruction

Chenopodium = experiment: Pre-emergence test/greenhouse; settings: greenhouse, 60 g of ai/ha, rated after three weeks
Description: as §1, §2, §3, §4, §5

Cotton = experiment: Pre-emergence test/greenhouse; settings: greenhouse, 60 g of ai/ha, rated after three weeks
Description: as §1, §2, §3, §4, §5

Echinochloa = experiment: Pre-emergence test/greenhouse; settings: greenhouse, 60 g of ai/ha, rated after three weeks
Description: as §1, §2, §3, §4, §5

Solanum [1] = experiment: Pre-emergence test/greenhouse; settings: greenhouse, 60 g of ai/ha, rated after three weeks
Description: as §1, §2, §3, §4, §5

Stellaria [2] = experiment: Pre-emergence test/greenhouse; settings: greenhouse, 60 g of ai/ha, rated after three weeks
Description: as §1, §2, §3, §4, §5

Veronica = experiment: Pre-emergence test/greenhouse; settings: greenhouse, 60 g of ai/ha, rated after three weeks
Description: as §1, §2, §3, §4, §5

Viola = experiment: Pre-emergence test/greenhouse; settings: greenhouse, 60 g of ai/ha, rated after three weeks
Description: as §1, §2, §3, §4, §5

weeds [3] = experiment: Pre-emergence test, activity against weeds
Description: as §1, §2, §3, §4, §5

Abutilon [4] = experiment: Post-emergence test/greenhouse; settings: greenhouse, rated after three weeks
Description: as §1
(§6) To produce a suitable preparation of active compound, one part by weight of active compound is mixed with the stated amount of solvent, the stated amount of emulsifier is added and the concentrate is diluted with water to the desired concentration.
(§7) Test plants which have a height of 5-15 cm are sprayed with the preparation of active compound such that the particular amounts of active compound desired are applied per unit area. The concentration of the spray liquor is chosen so that the particular amounts of active compound desired are applied in 1000 l of water/ha.
as §4
(§8) The figures denote: • 0%=no effect (like untreated control) • 100%=total destruction

Alopecurus [5] = experiment: Post-emergence test/greenhouse; settings: greenhouse, 250 g of ai/ha, rated after three weeks
Description: as §1, §6, §7, §4, §8

Amaranthus [6] = experiment: Post-emergence test/greenhouse; settings: greenhouse, rated after three weeks
Description: as §1, §6, §7, §4, §8

Avenafatua = experiment: Post-emergence test/greenhouse; settings: greenhouse, 250 g of ai/ha, rated after three weeks
Description: as §1, §6, §7, §4, §8

Setaria [7] = experiment: Post-emergence test/greenhouse; settings: greenhouse, rated after three weeks
Description: as §1, §6, §7, §4, §8

Sinapis [8] = experiment: Post-emergence test/greenhouse; settings: greenhouse, 250 g of ai/ha, rated after three weeks
Description: as §1, §6, §7, §4, §8

Xanthium [9] = experiment: Post-emergence test/greenhouse; settings: greenhouse, 250 g of ai/ha, rated after three weeks
Description: as §1, §6, §7, §4, §8

weeds [10] = experiment: Post-emergence test, activity against weeds
Description: as §1, §6, §7, §4, §8

Abutilon [11] = experiment: Pre-emergence test/greenhouse; settings: greenhouse, rated after three weeks
Description: as §1, §2, §3, §4, §5

Alopecurus [12] = experiment: Pre-emergence test/greenhouse; settings: greenhouse, rated after three weeks
Description: as §1, §2, §3, §4, §5

Amaranthus [13] = experiment: Pre-emergence test/greenhouse; settings: greenhouse, rated after three weeks
Description: as §1, §2, §3, §4, §5

Cyperus = experiment: Pre-emergence test/greenhouse; settings: greenhouse, rated after three weeks
Description: as §1, §2, §3, §4, §5

Galium = experiment: Pre-emergence test/greenhouse; settings: greenhouse, 250 g of ai/ha, rated after three weeks
Description: as §1, §2, §3, §4, §5

Setaria [14] = experiment: Pre-emergence test/greenhouse; settings: greenhouse, rated after three weeks
Description: as §1, §2, §3, §4, §5

Sinapis [15] = experiment: Pre-emergence test/greenhouse; settings: greenhouse, 250 g of ai/ha, rated after three weeks
Description: as §1, §2, §3, §4, §5

Xanthium [16] = experiment: Pre-emergence test/greenhouse; settings: greenhouse, 250 g of ai/ha, rated after three weeks
Description: as §1, §2, §3, §4, §5

Maize [17] = experiment: Post-emergence test/greenhouse; settings: greenhouse, 15 g of ai/ha, rated after three weeks
Description: as §1, §6, §7, §4, §8

Solanum [18] = experiment: Post-emergence test/greenhouse; settings: greenhouse, 15 g of ai/ha, rated after three weeks
Description: as §1, §6, §7, §4, §8

Stellaria [19] = experiment: Post-emergence test/greenhouse; settings: greenhouse, 15 g of ai/ha, rated after three weeks
Description: as §1, §6, §7, §4, §8

Wheat = experiment: Post-emergence test/greenhouse; settings: greenhouse, 15 g of ai/ha, rated after three weeks
Description: as §1, §6, §7, §4, §8

Digitaria = experiment: Pre-emergence test/greenhouse; settings: greenhouse, 60 g of ai/ha, rated after three weeks
Description: as §1, §2, §3, §4, §5

Maize [20] = experiment: Pre-emergence test/greenhouse; settings: greenhouse, 60 g of ai/ha, rated after three weeks
Description: as §1, §2, §3, §4, §5

Matricaria = experiment: Pre-emergence test/greenhouse; settings: greenhouse, 60 g of ai/ha, rated after three weeks
Description: as §1, §2, §3, §4, §5

Compound	degree of damage to the plants, Bromus (Bromus) [%]	degree of damage to the plants, Chenopodium (Chenopodium) [%]	degree of damage to the plants, Solanum (Solanum [1]) [%]	degree of damage to the plants, Stellaria (Stellaria [2]) [%]	degree of damage to the plants, Veronica (Veronica) [%]	degree of damage to the plants, Viola (Viola) [%]	activity against weeds (weeds [3])	degree of damage to the plants, Abutilon (Abutilon [4]; 250 g of ai/ha) [%]	degree of damage to the plants, Alopecurus (Alopecurus [5]) [%]	degree of damage to the plants, Amaranthus (Amaranthus [6]; 250 g of ai/ha) [%]	degree of damage to the plants, Avenafatua (Avenafatua) [%]	degree of damage to the plants, Setaria (Setaria [7]; 250 g of ai/ha) [%]	degree of damage to the plants, Sinapis (Sinapis [8]) [%]	degree of damage to the plants, Xanthium (Xanthium [9]) [%]	activity against weeds (weeds [10])	degree of damage to the plants, Maize (Maize [20]) [%]	degree of damage to the plants, Setaria (Setaria [14]; 60 g of ai/ha) [%]	other results
COC(=O)c1csc(C)c1S(=O)(=O)NC(=O)n1nc(OC(C)C)n(C2CC2)c1=O [Example 8]	90	90	90	95	95	100	very strong activity	100	100	100	100	100	95	100	very strong activity	–	–	degree of damage to the plants, Cotton (Cotton): 0%; degree of damage to the plants, Echinochloa (Echinochloa): 90%
COC(=O)c1csc(C)c1S(=O)(=O)NC(=O)n1nc(C)n(C)c1=O [Example 10]	–	–	–	–	–	–	very strong activity	–	–	–	–	–	–	–	very strong activity	–	–	degree of damage to the plants, Abutilon (Abutilon [11]; 250 g of ai/ha): 95%; degree of damage to the plants, Alopecurus (Alopecurus [12]; 250 g of ai/ha): 95%; degree of damage to the plants, Amaranthus (Amaranthus [13]; 250 g of ai/ha): 100%; degree of damage to the plants, Cyperus (Cyperus; 250 g of ai/ha): 95%; degree of damage to the plants, Galium (Galium): 95%; degree of damage to the plants, Setaria (Setaria [14]; 250 g of ai/ha): 100%; degree of damage to the plants, Sinapis (Sinapis [15]): 100%; degree of damage to the plants, Xanthium (Xanthium [16]): 90%; degree of damage to the plants, Abutilon (Abutilon [4]; 15 g of ai/ha): 90%; degree of damage to the plants, Amaranthus (Amaranthus [6]; 15 g of ai/ha): 90%; degree of damage to the plants, Maize (Maize [17]): 10%; degree of damage to the plants, Setaria (Setaria [7]; 15 g of ai/ha): 95%; degree of damage to the plants, Solanum (Solanum [18]): 90%; degree of damage to the plants, Stellaria (Stellaria [19]): 95%; degree of damage to the plants, Wheat (Wheat): 10%
CCc1nn(C(=O)NS(=O)(=O)c2c(C(=O)OC)csc2C)c(=O)n1C [Example 11]	–	100	100	–	–	–	very strong activity	100	100	100	100	100	100	100	very strong activity	10	100	degree of damage to the plants, Alopecurus (Alopecurus [12]; 60 g of ai/ha): 100%; degree of damage to the plants, Amaranthus (Amaranthus [13]; 60 g of ai/ha): 100%; degree of damage to the plants, Digitaria (Digitaria): 100%; degree of damage to the plants, Matricaria (Matricaria): 100%
COC(=O)c1csc(C)c1S(=O)(=O)NC(=O)n1nc(SC)n(C)c1=O [Example 12]	100	–	–	100	100	100	very strong activity	100	95	100	100	100	100	100	very strong activity	10	100	degree of damage to the plants, Abutilon (Abutilon [11]; 60 g of ai/ha): 100%; degree of damage to the plants, Cyperus (Cyperus; 60 g of ai/ha): 100%
